The record followed here is patent US20240425491A1, “HETEROARYL COMPOUNDS USEFUL IN THE TREATMENT OF COGNITIVE DISORDERS” (University College Cardiff Consultants Limited, priority 2021, published 2024).

The target in assay [1] is T1, human recombinant GABAAR containing α5β3γ2 subunits (benzodiazepine site) (Homo sapiens, UniProt P18507+P31644).
T1 construct: expressed in transfected cells; host or cells: mouse L(tk−) cells, dexamethasone-inducible vector pMSGneo
Nature of the assay: In vitro radioligand binding assay (α5-GABAAR Ki). To be noted: inhibition of [3H]Ro15-1788 binding, membranes of L(tk−) cells expressing human α5β3γ2; read-out: α5-GABAAR Ki. An outline of the steps: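 Membranes from mouse L(tk^−) cells stably expressing human α5β3γ2 GABAAR incubated 1 h at 4° C with 4 nM [^3H]Ro15-1788 and test compound; nonspecific binding with 1 μM TP003. Filter-bound radioactivity counted; Ki from IC50 by Cheng-Prusoff using measured Kd.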

Assay [2] deals with T2, human α5β3γ2L GABAA receptors in HEK293 cells (Homo sapiens, UniProt P18507+P31644).
T2 construct: expressed in transfected cells
Description: In vitro electrophysiological recording assay (α5-GABAAR relative efficacy), SyncroPatch. Format: cell-based. Conditions: Conc 0.1 μM; GABA EC10-20. The text has this:
Mouse L(tk^−) cells stably expressing human α1β3γ2, α2β3γ2, α3β3γ2, α5β3γ2 GABAARs generated by transfection of the individual subunits in the dexamethasone-inducible expression vector pMSGneo in mouse L(tk^−) cells (Hadingham et al., 1993, Mol. Pharmacol. 43:970-975 and 1993, Mol. Pharmacol. 44:1211-1218) were used for binding and functional assays. For certain compounds, HEK293 cells stable expressing the human α1β3γ2L, α2β3γ2L, α3β3γ2L and α5β3γ2L GABAA receptors were used to evaluate their functional effects in a SyncroPatch electrophysiology assay.
The efficacy of modulators was evaluated using either the automated patch-clamp platform QPatch16 (Sophion, Copenhagen, Denmark) or the SyncroPatch 384i (Nanion Technologies, Germany). Cells were harvested from flasks by enzymatic dissociation and re-suspended in serum-free medium.
For the Syncropatch recordings, a stacked addition protocol was used, in which GABA was rapidly applied and then washed off from the cell. All experiments were carried out at room temperature (20-22° C.) using a standard whole cell procedure. The currents recorded were acquired at 2 kHz and filtered using a Bessel filter. Whole-cell currents were measured at a holding potential of −80 mV.
For Syncropatch recordings, the extracellular recording solution contained: 140 mM NaCl, 4 mM KCl, 2 mM CaCl2), 1 mM MgCl2, 10 mM HEPES, 5 mM glucose (pH 7.4 and osmolarity of c. 300-310 mOsm/L). The intracellular recording solution contained: 90 mM KCl, 50 mM KF, 1.5 mM MgCl2, 11.1 mM EGTA and 10 mM HEPES (pH 7.2 and osmolarity of c. 300 mOsm/L). 2 mM of NaATP was added to the intracellular solution on the day of testing.
The effects of modulators were evaluated in the presence of a submaximal GABA concentration, giving typically 10-20% activation (GABA EC10-20) of the response elicited by a saturating GABA concentration. For QPatch recordings, to check and ensure baseline current stability before compound addition, five consecutive applications of GABA EC10-20 alone (each application with a 2 s duration, separated by minimum 1 min wash off periods) were performed before compound addition. The test compound was applied using the pipetting system of the QPatch system 1 min at least prior to co-application with GABA EC10-20. For SyncroPatch recordings, GABA EC20 alone was applied three times (1 s long applications, with wash steps in-between) before compound addition. This was followed by a 1-2 min pre-incubation with the test compound and then re-application of GABA EC10-20 in the presence of the compound. Finally, following a further wash step, a saturating concentration of GABA was applied, allowing the accurate evaluation for each cell of the percentage baseline activation elicited by the submaximal GABA applied.
The compounds were first dissolved in DMSO as a 10 mM stock and then further diluted to the testing concentrations so that the final DMSO concentration in the extracellular recording solution was kept constant at 0.1% for the QPatch recordings, or 0.2% for the SyncroPatch recordings.
The % efficacy of modulators was determined from the GABA elicited currents recorded in the presence and absence of the test compound, using the formula:
[((compound peak current−leak)−(GABA peak current−leak))/(GABA peak current−leak)]*100,
where ‘leak’ is the leak baseline current at −65 mV, ‘compound peak current’ is the current elicited by co-application of compound and GABA, and ‘GABA peak current’ is the current elicited by GABA alone during the 5th GABA application. The results were presented as ‘relative efficacy’ for each compound generally at a concentration equal or higher than 100 times their determined Ki. The relative efficacy of a compound was calculated by normalising its efficacy to the efficacy of methyl-6,7-dimethoxy-4-ethyl-beta-carboline-3-carboxylate (DMCM) that was separately determined produced an attenuation of GABA-induced currents of −57±4%, n=5.

The target in assay [3] is T3, human α5β3γ2 GABAARs in mouse L(tk−) cells (Homo sapiens, UniProt P18507+P31644).
T3 construct: expressed in transfected cells; host or cells: mouse L(tk−) cells, dexamethasone-inducible vector pMSGneo
Description: In vitro electrophysiological recording assay (α5-GABAAR relative efficacy), QPatch. Format: cell-based. To be noted: GABA EC10-20. An outline of the steps: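 Whole-cell QPatch recordings at 20-22° C, −65 mV holding, in dexamethasone-induced (1 μM, 24 h) L(tk−) cells. Compound pre-applied ≥1 min, then co-applied with GABA EC10-20; percentage change in leak-corrected peak current, taken at ≥100× Ki, normalised to DMCM efficacy; 0.1% DMSO final.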

T1 sequence (P31644 32-462): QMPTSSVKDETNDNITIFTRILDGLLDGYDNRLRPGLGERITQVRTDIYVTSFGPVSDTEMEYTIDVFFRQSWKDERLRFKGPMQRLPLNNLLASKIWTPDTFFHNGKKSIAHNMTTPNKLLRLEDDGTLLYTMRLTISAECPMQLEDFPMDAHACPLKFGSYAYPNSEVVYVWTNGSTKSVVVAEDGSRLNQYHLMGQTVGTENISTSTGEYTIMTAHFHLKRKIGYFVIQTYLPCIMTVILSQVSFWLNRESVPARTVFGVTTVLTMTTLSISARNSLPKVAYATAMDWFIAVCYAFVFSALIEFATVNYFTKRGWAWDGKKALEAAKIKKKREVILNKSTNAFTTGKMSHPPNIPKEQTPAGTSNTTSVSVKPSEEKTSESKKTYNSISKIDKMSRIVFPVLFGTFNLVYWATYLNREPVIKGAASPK
T1 sequence (P28472 26-473 partner): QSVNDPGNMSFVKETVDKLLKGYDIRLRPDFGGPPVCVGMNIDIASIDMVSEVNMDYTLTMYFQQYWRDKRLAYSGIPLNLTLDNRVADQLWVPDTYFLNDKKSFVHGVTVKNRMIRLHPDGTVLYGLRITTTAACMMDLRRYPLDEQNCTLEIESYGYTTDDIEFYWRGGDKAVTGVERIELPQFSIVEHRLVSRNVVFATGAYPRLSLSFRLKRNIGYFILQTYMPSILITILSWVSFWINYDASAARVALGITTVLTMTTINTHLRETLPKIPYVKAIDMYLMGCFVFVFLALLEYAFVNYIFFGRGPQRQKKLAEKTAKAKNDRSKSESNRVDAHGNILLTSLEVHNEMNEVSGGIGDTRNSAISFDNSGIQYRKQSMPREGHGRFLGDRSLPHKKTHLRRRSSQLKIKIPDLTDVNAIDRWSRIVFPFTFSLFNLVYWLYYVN
T1 sequence (P18507 40-475): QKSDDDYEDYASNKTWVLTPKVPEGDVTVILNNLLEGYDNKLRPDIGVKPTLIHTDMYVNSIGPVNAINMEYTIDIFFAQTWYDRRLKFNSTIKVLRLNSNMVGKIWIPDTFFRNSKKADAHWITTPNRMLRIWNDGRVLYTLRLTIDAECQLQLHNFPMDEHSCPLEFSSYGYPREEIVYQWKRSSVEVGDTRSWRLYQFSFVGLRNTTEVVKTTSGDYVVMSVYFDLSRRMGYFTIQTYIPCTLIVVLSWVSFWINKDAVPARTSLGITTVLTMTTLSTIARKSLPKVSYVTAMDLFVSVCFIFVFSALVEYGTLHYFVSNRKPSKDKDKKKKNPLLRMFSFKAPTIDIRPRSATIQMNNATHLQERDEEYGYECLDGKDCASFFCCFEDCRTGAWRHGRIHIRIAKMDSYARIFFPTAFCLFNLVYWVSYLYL
T2 sequence (P31644 32-462): as the sequence (P31644 32-462) above
T2 sequence (P28472 26-473 partner): as the sequence (P28472 26-473 partner) above
T2 sequence (P18507 40-475): as the sequence (P18507 40-475) above
T3 sequence (P31644 32-462): as the sequence (P31644 32-462) above
T3 sequence (P28472 26-473 partner): as the sequence (P28472 26-473 partner) above
T3 sequence (P18507 40-475): as the sequence (P18507 40-475) above

Consider `COc1nc(-n2ccnc2)ccc1NC(=O)c1c(-c2ccc(F)cc2)noc1C` [Example 141, 3-(4-Fluorophenyl)-N-(6-imidazol-1-yl-2-methoxy-3-pyridyl)-5-methyl-isoxazole-4-carboxamide], for which the Ki in assay [1] turned out to be 1.9 nM. Besides, the “α5-GABAAR Relative Efficacy (to DMCM), SyncroPatch” value in assay [2] was −1.13. Besides, in assay [3] (Conc 0.3 μM), the “α5-GABAAR Relative Efficacy (to DMCM), Qpatch” value was −0.93.
As to `COc1nc(-c2cnc3n2CCN(C(C)=O)C3)ccc1NC(=O)c1c(-c2ccccc2)noc1C` [Example 143, N-(6-(7-Acetyl-5,6,7,8-tetrahydroimidazo[1,2-a]pyrazin-3-yl)-2-methoxypyridin-3-yl)-5-methyl-3-phenylisoxazole-4-carboxamide], the Ki in assay [1] was 0.4 nM. Further, the “α5-GABAAR Relative Efficacy (to DMCM), SyncroPatch” value in assay [2] is −0.72. For the same compound, the “α5-GABAAR Relative Efficacy (to DMCM), Qpatch” value in assay [3] (Conc 0.1 μM) is −0.80.
Take `COc1nc(-c2cnc(CN(C)C)nc2)cnc1NC(=O)c1c(-c2ccccc2)noc1C` [Example 144, N-[5-[2-[(Dimethylamino)methyl]pyrimidin-5-yl]-3-methoxy-pyrazin-2-yl]-5-methyl-3-phenyl-isoxazole-4-carboxamide]: in assay [1], the Ki stood at 1.4 nM. The “α5-GABAAR Relative Efficacy (to DMCM), SyncroPatch” value in assay [2] is recorded as −1.05. For the same compound, the “α5-GABAAR Relative Efficacy (to DMCM), Qpatch” value in assay [3] (Conc 0.3 μM) is recorded as −0.95.
Turning to `COc1nc(-c2cnc(CN)nc2)cnc1NC(=O)c1c(-c2ccccc2)noc1C.Cl` [Example 156, N-[5-[2-(Aminomethyl)pyrimidin-5-yl]-3-methoxy-pyrazin-2-yl]-5-methyl-3-phenyl-isoxazole-4-carboxamide hydrochloride], the inhibition constant (Ki) in assay [1] came out at 2.7 nM. Besides, in assay [2], the “α5-GABAAR Relative Efficacy (to DMCM), SyncroPatch” value was −0.65. Moreover, the “α5-GABAAR Relative Efficacy (to DMCM), Qpatch” value in assay [3] (Conc 0.3 μM) is reported as −0.91.
Regarding `COc1nc(-c2ccn3nc(N)nc3c2)ccc1NC(=O)c1c(C)nnn1-c1ccccc1` [Example 159, N-(6-(2-Amino-[1,2,4]triazolo[1,5-a]pyridin-7-yl)-2-methoxypyridin-3-yl)-4-methyl-1-phenyl-1H-1,2,3-triazole-5-carboxamide], the Ki in assay [1] is 9.2 nM. Further, the “α5-GABAAR Relative Efficacy (to DMCM), SyncroPatch” value in assay [2] is recorded as −0.81. For the same compound, the “α5-GABAAR Relative Efficacy (to DMCM), Qpatch” value in assay [3] (Conc 1 μM) was −0.82.
Take `COc1nc(-n2cnc3c2CNCC3)ccc1NC(=O)c1c(-c2ccccc2)noc1C.Cl.Cl` [Example 179, N-[2-Methoxy-6-(4,5,6,7-tetrahydroimidazo[4,5-c]pyridin-3-yl)-3-pyridyl]-5-methyl-3-phenyl-isoxazole-4-carboxamide dihydrochloride]: the Ki in assay [1] is 3 nM. Also, the “α5-GABAAR Relative Efficacy (to DMCM), SyncroPatch” value in assay [2] is −0.38. The “α5-GABAAR Relative Efficacy (to DMCM), Qpatch” value in assay [3] (Conc 0.3 μM) is given as −0.65.
In the case of `COc1nc(-c2cnc(CN)nc2)ccc1NC(=O)c1c(-c2ccccc2)nnn1C.Cl` [Example 180, N-(6-(2-(Aminomethyl)pyrimidin-5-yl)-2-methoxypyridin-3-yl)-1-methyl-4-phenyl-1H-1,2,3-triazole-5-carboxamide hydrochloride], the Ki in assay [1] was 3.9 nM. Moreover, the “α5-GABAAR Relative Efficacy (to DMCM), SyncroPatch” value in assay [2] is −0.48. In addition, in assay [3] (Conc 1 μM), the “α5-GABAAR Relative Efficacy (to DMCM), Qpatch” value is −0.63.
Take `COc1nc(-c2cnc(CN)nc2)ccc1NC(=O)c1c(-c2ccc(F)cc2)noc1C.Cl` [Example 185, N-[6-[2-(Aminomethyl)pyrimidin-5-yl]-2-methoxy-3-pyridyl]-3-(4-fluorophenyl)-5-methyl-isoxazole-4-carboxamide hydrochloride]: the Ki in assay [1] is 0.5 nM. In addition, the “α5-GABAAR Relative Efficacy (to DMCM), SyncroPatch” value in assay [2] is given as −1.23. Further, the “α5-GABAAR Relative Efficacy (to DMCM), Qpatch” value in assay [3] (Conc 0.1 μM) is −0.79.
`COc1nc(-c2cnc(OC3CNC3)nc2)ccc1NC(=O)c1c(-c2ccccc2)noc1C` [Example 189, N-[6-[2-(Azetidin-3-yloxy)pyrimidin-5-yl]-2-methoxy-3-pyridyl]-5-methyl-3-phenyl-isoxazole-4-carboxamide]: the Ki in assay [1] worked out at 0.7 nM. The “α5-GABAAR Relative Efficacy (to DMCM), SyncroPatch” value in assay [2] is −0.72. Moreover, the “α5-GABAAR Relative Efficacy (to DMCM), Qpatch” value in assay [3] (Conc 0.1 μM) is −0.70.
